Legend:
Aspergillus niger = test: Microbial growth inhibition, room temperature storage (20°-25° C.); format: cell-based; details: A. niger, room temperature 20°-25° C.; for % Change: vs theoretical 0 hr count
Protocol: (§1) Amifostine was studied for its ability to inhibit microbial growth. Clear 10 cc vials, stoppers and seals were sterilized for use in the study. Two separate procedures were performed: a refrigerated storage study (2° to 8° C.) and a room temperature storage study (20° to 25° C.). For each test portion, positive controls were prepared for each organism by placing 9.5 mL sterile 0.9% sodium chloride into separate sterile vials and inoculating each with 10^3 to 10^4 of one of the test organisms. In addition, amifostine test specimens were prepared for each test portion by reconstituting six Ethyol® vials with 0.9% sodium chloride, the contents of each of these vials were then transferred to clear sterile vials to allow for easier visual examination. One vial was designated as a negative control, and each of the remaining five vials was inoculated with 10^3 to 10^4 of one of the test organisms. All vials were protected from light throughout the test to simulate the amber Ethyol® vial.
(§2) Positive controls, product test specimens, and a negative control were prepared. At this time, population counts were performed on each positive control. Population counts were also performed on positive controls and product test specimens at 24 and 48 hours. These samples were diluted with sterile water and plated in duplicate with a target of 30 to 300 colonies per plate. Candida albicans, Escherichia coli, Pseudomonas aeruginosa, and Staphylococcus aureus were overpoured with TSA agar and incubated at 30-35° C. for 48 hours. Aspergillus niger was overpoured with Sabouraud agar and incubated at 20-25° C. for 48 hours.

Escherichia coli = test: as above; format: cell-based; details: E. coli, room temperature 20°-25° C.; for % Change: vs theoretical 0 hr count
Protocol: as §1, §2

Candida albicans = test: as above; format: cell-based; details: room temperature 20°-25° C.; for % Change: vs theoretical 0 hr count
Protocol: as §1, §2

small intestine of rats = details: 150 mg/mL in pH 9 Tris buffer, intralumenal; cited from earlier work
[1] = test system: five compendial organisms; test: Microbial growth inhibition, room temperature storage, summary over all test organisms; format: cell-based
Protocol: as §1
Positive controls, product test specimens, and a negative control were prepared. At this time, population counts were performed on each positive control. Population counts were also performed on positive controls and product test specimens at 24 and 48 hours. These samples were diluted with sterile water and plated in duplicate with a target of 30 to 300 colonies per plate. […]

murine skin = details: gauze with 10% solution in saline on murine skin 15 to 60 minutes, then 137Cs irradiation; cited from earlier work

NCCCNCCSP(=O)(O)O [amifostine, S-2-(3-aminopropylamino)ethyl dihydrogen phosphorothioate]
CFU/mL in Amifostine (Aspergillus niger; 24 hr): 1.56 × 10^7 CFU/mL | % Change (Aspergillus niger; 24 hr): +58.3% | CFU/mL in Amifostine (Aspergillus niger; 48 hr): 3.52 × 10^6 CFU/mL | % Change (Aspergillus niger; 48 hr): −61.3% | CFU/mL in Amifostine (Escherichia coli; 24 hr): 2.28 × 10^3 CFU/mL | % Change (Escherichia coli; 24 hr): −91.8% | CFU/mL in Amifostine (Escherichia coli; 48 hr): 8.55 × 10^2 CFU/mL | % Change (Escherichia coli; 48 hr): −96.9% | CFU/mL in Amifostine (Candida albicans; 24 hr): 1.43 × 10^4 CFU/mL | % Change (Candida albicans; 24 hr): −13.8% | CFU/mL in Amifostine (Candida albicans; 48 hr): 1.00 × 10^4 CFU/mL | % Change (Candida albicans; 48 hr): −39.8% | radioprotection against intestinal mucositis (small intestine of rats): effective radioprotector | concentration of viable microorganisms at 24 hours [1]: reduced in four of the five compendial organisms | radioprotective effect, topically applied (murine skin): no significant radioprotective effects
